# According to patent US20240384236A1, “3D RECONSTITUTED BONE MARROW NICHE AND USES THEREOF” (The University of Hong Kong, priority 2023, published 2024):
# Where two headings read alike, the source gives them in different places.
# Tested on: primary AML cells
# Experiment: Sample drug screening: viability of primary AML cells (PrestoBlue) after 24 h drug exposure in nine culture conditions
# Details: for sensitivity of AML cells to the drug: co-culture with AML MSC-derived niches; for chemosensitivity of primary AML cells towards the drug: co-culture with healthy 3DON; for IC50: Homo sapiens
SMILES,sensitivity of AML cells to the drug,chemosensitivity of primary AML cells towards the drug,"IC50 (read-out: IC50 daunorubicin, primary AML cells co-cultured with AML 2DMN) [µM]","IC50 (read-out: IC50 daunorubicin, primary AML cells co-cultured with AML 3DMN) [µM]","IC50 (read-out: IC50 daunorubicin, primary AML cells co-cultured with AML 3DON) [µM]","IC50 (read-out: IC50 daunorubicin, primary AML cells co-cultured with healthy 2DMN) [µM]","IC50 (read-out: IC50 daunorubicin, primary AML cells co-cultured with healthy 3DMN) [µM]","IC50 (read-out: IC50 daunorubicin, primary AML cells in NC1 (AML medium)) [µM]","IC50 (read-out: IC50 daunorubicin, primary AML cells in NC2 (MSC medium)) [µM]","IC50 (read-out: IC50 daunorubicin, primary AML cells in PC (engineered growth factor cocktail medium)) [µM]"
COc1cccc2c1C(=O)c1c(O)c3c(c(O)c1C2=O)C[C@@](O)(C(=O)CO)C[C@@H]3O[C@H]1C[C@H](N)[C@H](O)[C@H](C)O1 [doxorubicin],less sensitive,increase the chemosensitivity,,,,,,,,
COc1cccc2c1C(=O)c1c(O)c3c(c(O)c1C2=O)C[C@@](O)(C(C)=O)C[C@@H]3O[C@H]1C[C@H](N)[C@H](O)[C@H](C)O1 [daunorubicin],less sensitive,increase the chemosensitivity,74,55.9,43.4,0.571,3.31,0.0486,0.525,34.3
